# Read-outs that look alike come from different tables or passages of the source.
# Key:
# Test in all cases: selectivity profiling in a panel of 340 wild-type kinases (Reaction Biology Europe)
# Assay type in all cases: binding
# 340 wild-type kinases [1] = biological target: T1, 340 wild-type kinases (Homo sapiens, UniProt P08631)
# T1 construct: purchased Reaction Biology Europe
# 340 wild-type kinases [2] = biological target: T2, 340 wild-type kinases (Homo sapiens, UniProt P17612)
# T2 construct: purchased Reaction Biology Europe
# 340 wild-type kinases [3] = biological target: T3, 340 wild-type kinases (Homo sapiens, UniProt P35968)
# T3 construct: purchased Reaction Biology Europe
# T3 sequence (P35968 20-1356): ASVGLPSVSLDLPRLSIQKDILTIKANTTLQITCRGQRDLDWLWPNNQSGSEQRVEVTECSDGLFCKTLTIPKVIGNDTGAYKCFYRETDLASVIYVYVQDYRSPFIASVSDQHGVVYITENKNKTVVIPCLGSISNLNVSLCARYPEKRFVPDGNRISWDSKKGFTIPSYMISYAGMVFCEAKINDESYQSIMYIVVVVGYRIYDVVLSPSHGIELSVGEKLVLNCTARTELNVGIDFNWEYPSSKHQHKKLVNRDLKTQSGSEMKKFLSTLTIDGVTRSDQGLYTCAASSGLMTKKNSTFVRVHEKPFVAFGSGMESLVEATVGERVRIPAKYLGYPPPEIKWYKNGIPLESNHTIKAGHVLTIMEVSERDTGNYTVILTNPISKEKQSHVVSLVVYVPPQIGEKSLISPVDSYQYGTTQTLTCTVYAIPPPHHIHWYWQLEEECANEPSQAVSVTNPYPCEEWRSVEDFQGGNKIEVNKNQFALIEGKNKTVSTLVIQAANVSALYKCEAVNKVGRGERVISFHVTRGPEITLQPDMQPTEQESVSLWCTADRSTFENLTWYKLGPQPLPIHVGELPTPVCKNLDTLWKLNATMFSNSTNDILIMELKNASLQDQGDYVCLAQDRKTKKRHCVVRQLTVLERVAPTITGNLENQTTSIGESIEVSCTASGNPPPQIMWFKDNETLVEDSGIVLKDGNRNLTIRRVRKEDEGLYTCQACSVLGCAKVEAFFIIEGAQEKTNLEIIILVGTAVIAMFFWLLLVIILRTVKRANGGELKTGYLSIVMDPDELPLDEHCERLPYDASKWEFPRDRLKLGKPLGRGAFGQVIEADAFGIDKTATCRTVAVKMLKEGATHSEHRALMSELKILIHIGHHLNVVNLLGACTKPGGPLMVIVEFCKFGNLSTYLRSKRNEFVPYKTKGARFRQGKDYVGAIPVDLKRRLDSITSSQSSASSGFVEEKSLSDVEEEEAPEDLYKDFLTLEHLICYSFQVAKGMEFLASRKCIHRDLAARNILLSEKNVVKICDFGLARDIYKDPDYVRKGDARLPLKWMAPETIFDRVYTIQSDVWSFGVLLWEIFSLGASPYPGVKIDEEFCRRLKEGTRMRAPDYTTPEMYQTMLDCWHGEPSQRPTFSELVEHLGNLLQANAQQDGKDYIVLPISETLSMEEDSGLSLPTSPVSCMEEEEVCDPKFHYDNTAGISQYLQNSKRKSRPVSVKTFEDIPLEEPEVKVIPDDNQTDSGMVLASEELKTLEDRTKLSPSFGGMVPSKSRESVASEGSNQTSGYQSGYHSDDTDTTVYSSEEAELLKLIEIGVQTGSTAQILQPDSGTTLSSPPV
# 340 wild-type kinases [4] = biological target: T4, 340 wild-type kinases (Homo sapiens, UniProt P51956)
# T4 construct: purchased Reaction Biology Europe
# T4 sequence (P51956 1-506): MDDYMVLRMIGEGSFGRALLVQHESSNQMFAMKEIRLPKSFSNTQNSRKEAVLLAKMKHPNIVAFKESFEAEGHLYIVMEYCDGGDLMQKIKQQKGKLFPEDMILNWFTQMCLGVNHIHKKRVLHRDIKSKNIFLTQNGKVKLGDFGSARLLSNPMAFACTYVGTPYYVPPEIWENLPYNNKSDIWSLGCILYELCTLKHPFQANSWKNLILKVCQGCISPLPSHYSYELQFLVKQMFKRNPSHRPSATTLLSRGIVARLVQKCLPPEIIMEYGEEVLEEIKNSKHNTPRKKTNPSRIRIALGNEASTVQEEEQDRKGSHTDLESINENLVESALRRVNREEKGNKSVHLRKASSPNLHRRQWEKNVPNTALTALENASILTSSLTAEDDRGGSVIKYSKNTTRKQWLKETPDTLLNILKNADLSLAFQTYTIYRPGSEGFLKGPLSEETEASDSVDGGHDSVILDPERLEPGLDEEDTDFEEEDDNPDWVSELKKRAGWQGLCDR
# 340 wild-type kinases [5] = biological target: T5, 340 wild-type kinases (Homo sapiens, UniProt Q15208)
# T5 construct: purchased Reaction Biology Europe
# T5 sequence (Q15208 whole entry): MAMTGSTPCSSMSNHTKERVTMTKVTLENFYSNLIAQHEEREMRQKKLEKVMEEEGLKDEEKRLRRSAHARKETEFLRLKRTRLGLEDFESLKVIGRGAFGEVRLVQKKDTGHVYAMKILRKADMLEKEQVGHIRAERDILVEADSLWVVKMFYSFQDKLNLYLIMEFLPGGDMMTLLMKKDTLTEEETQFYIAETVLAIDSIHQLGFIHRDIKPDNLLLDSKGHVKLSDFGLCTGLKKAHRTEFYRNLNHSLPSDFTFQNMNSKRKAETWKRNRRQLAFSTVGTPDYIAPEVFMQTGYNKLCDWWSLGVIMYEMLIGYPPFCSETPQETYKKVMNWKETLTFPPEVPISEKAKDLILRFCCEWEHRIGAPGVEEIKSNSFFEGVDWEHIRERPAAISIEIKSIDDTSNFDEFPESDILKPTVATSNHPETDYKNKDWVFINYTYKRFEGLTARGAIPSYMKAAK
# 340 wild-type kinases [6] = biological target: T6, 340 wild-type kinases (Homo sapiens, UniProt Q5S007)
# T6 construct: purchased Reaction Biology Europe
# 340 wild-type kinases [7] = biological target: T7, 340 wild-type kinases (Homo sapiens, UniProt Q86Y07)
# T7 construct: purchased Reaction Biology Europe
# T7 sequence (Q86Y07 whole entry): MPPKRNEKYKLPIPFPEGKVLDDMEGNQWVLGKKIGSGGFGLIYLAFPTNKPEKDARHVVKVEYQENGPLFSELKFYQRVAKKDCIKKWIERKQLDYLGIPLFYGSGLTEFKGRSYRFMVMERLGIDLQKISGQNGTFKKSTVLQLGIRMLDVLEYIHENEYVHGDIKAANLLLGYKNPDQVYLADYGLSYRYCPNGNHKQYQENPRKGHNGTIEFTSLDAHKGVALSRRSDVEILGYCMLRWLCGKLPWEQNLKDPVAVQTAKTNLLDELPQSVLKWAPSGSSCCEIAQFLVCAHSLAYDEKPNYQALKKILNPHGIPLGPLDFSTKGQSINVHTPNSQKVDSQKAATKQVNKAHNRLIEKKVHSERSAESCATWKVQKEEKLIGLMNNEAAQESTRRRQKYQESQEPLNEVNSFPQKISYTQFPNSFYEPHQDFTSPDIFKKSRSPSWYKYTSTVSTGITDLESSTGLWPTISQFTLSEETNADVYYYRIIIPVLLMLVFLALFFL
# 340 wild-type kinases [8] = biological target: T8, 340 wild-type kinases (Homo sapiens, UniProt Q8IYT8)
# T8 construct: purchased Reaction Biology Europe
# T8 sequence (Q8IYT8 1-1036): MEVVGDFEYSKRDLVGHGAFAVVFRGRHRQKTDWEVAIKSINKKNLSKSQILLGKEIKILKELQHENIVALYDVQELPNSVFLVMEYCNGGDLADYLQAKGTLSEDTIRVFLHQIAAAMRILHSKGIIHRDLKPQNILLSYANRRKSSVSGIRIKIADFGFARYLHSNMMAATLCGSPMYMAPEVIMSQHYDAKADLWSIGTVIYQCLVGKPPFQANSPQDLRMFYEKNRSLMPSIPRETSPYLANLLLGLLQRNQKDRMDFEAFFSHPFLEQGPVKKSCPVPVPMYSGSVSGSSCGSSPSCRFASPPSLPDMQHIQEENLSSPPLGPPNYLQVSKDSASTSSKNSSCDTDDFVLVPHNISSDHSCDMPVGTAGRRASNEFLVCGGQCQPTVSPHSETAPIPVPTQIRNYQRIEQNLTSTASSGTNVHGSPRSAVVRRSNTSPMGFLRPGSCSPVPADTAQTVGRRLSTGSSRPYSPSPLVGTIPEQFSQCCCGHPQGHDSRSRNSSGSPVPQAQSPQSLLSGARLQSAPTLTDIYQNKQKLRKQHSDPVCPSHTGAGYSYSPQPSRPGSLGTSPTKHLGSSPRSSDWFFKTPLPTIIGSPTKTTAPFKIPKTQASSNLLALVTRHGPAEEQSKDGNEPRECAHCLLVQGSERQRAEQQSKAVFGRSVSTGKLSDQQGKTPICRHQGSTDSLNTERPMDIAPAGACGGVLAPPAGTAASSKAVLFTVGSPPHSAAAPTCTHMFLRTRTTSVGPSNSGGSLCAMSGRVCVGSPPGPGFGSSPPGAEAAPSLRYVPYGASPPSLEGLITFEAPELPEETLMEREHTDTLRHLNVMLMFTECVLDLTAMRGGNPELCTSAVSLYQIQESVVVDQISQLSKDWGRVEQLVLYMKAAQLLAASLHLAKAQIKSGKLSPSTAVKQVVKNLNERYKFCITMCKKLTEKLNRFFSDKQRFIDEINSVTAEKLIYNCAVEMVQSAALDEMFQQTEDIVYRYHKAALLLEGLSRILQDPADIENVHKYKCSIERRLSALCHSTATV
# 340 wild-type kinases [9] = biological target: T9, 340 wild-type kinases (Homo sapiens, UniProt Q9BYP7)
# T9 construct: purchased Reaction Biology Europe
# T9 sequence (Q9BYP7 whole entry): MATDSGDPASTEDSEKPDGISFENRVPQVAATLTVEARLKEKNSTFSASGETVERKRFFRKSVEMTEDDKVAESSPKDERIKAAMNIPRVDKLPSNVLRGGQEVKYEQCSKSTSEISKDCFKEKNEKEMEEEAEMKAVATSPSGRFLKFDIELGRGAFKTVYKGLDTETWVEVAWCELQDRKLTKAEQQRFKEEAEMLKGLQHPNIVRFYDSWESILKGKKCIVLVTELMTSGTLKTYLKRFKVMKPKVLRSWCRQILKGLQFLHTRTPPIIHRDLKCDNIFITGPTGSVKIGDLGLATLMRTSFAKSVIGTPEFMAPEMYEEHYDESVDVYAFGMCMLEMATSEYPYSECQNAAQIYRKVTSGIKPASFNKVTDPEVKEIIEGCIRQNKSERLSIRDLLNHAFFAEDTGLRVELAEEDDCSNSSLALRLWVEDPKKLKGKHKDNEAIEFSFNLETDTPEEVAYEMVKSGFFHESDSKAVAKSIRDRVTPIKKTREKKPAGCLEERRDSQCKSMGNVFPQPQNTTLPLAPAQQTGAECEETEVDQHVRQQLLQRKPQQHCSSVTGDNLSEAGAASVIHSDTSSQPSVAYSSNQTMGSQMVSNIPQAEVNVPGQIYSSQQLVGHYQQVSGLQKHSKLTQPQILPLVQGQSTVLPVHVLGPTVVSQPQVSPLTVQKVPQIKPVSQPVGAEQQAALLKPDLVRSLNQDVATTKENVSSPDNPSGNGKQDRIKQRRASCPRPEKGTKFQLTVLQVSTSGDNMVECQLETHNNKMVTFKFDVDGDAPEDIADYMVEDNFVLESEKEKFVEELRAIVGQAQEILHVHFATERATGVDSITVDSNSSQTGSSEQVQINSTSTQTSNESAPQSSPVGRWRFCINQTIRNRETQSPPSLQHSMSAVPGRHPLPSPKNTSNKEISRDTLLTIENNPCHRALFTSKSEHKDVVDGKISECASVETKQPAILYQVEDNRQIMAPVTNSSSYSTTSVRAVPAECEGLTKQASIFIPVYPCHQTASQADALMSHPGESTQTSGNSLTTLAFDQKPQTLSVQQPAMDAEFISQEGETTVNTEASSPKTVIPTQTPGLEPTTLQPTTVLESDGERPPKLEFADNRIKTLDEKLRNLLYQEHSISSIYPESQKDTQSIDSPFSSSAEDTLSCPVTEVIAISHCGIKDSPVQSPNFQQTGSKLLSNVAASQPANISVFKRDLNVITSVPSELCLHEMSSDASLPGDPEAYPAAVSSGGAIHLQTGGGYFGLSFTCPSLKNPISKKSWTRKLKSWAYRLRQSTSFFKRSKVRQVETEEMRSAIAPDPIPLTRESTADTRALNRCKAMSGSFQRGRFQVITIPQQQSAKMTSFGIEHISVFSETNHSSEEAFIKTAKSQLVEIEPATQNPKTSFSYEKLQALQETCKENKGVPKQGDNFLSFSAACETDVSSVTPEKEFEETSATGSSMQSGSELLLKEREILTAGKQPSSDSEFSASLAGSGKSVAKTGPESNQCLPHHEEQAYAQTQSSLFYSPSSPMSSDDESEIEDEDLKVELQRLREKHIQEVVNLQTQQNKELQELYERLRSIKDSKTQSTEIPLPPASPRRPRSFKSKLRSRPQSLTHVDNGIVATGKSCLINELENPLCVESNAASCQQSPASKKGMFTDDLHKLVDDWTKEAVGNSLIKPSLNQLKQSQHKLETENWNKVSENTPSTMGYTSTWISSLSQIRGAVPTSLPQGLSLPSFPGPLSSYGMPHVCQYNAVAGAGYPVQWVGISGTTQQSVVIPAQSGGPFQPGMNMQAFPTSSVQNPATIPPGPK
# 340 wild-type kinases [10] = biological target: T10, 340 wild-type kinases (Homo sapiens, UniProt Q9HCP0)
# T10 construct: purchased Reaction Biology Europe
# T10 sequence (Q9HCP0 whole entry): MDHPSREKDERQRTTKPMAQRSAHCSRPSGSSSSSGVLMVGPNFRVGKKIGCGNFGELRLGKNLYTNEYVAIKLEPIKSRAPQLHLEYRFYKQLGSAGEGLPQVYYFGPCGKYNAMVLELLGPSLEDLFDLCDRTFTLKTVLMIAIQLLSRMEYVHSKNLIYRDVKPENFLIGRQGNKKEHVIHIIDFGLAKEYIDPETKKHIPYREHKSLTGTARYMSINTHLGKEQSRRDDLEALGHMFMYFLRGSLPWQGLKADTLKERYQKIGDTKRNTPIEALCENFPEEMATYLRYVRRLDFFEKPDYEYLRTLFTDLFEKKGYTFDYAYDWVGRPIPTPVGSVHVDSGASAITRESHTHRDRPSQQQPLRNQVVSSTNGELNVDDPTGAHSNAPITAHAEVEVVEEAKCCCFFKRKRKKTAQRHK
# 340 wild-type kinases [11] = biological target: T11, 340 wild-type kinases (Homo sapiens, UniProt Q9UEW8)
# T11 construct: purchased Reaction Biology Europe
# T1 sequence (P08631 whole entry): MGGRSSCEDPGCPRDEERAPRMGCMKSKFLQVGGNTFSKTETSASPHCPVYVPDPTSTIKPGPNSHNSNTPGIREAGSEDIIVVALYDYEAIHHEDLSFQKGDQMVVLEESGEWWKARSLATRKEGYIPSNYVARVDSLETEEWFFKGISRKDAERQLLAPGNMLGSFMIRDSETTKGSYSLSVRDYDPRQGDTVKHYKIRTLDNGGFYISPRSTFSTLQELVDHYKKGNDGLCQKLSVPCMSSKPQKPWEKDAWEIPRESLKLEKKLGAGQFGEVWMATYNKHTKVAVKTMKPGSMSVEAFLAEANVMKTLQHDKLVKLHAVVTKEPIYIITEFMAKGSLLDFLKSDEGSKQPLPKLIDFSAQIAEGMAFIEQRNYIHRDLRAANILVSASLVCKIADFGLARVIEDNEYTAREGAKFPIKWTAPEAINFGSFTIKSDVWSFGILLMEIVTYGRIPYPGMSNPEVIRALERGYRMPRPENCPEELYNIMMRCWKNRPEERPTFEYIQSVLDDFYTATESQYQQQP
smiles,measurement,setting,value
CNC(=O)c1ccc2c(c1)C(=O)c1ccc(Nc3ccc(F)c(NC(=O)C4CC4)c3)cc1CC2 [Compound 2015],remaining activity at 0.2 µM,"340 wild-type kinases [1]; 0.2 µM 2015, read-out: HCK residual activity",124%
same,remaining activity at 1 µM,"340 wild-type kinases [1]; 1 µM 2015, read-out: HCK residual activity",109%
same,remaining activity at 0.2 µM,"340 wild-type kinases [1]; HCK, 0.2 µM, read-out: residual activity",124%
same,remaining activity at 1 µM,"340 wild-type kinases [1]; HCK, 1 µM, read-out: residual activity",109%
same,remaining activity at 0.2 µM,"340 wild-type kinases [2]; 0.2 µM 2015, read-out: PKA residual activity",124%
same,remaining activity at 1 µM,"340 wild-type kinases [2]; 1 µM 2015, read-out: PKA residual activity",97.7%
same,remaining activity at 0.2 µM,"340 wild-type kinases [2]; PKA, 0.2 µM, read-out: residual activity",124%
same,remaining activity at 1 µM,"340 wild-type kinases [2]; PKA, 1 µM, read-out: residual activity",97.8%
same,remaining activity at 0.2 µM,"340 wild-type kinases [3]; 0.2 µM 2015, read-out: VEGFR2 residual activity",86.7%
same,remaining activity at 1 µM,"340 wild-type kinases [3]; 1 µM 2015, read-out: VEGFR2 residual activity",96.7%
same,remaining activity at 0.2 µM,"340 wild-type kinases [3]; VEGFR2, 0.2 µM, read-out: residual activity",86.7%
same,remaining activity at 1 µM,"340 wild-type kinases [3]; VEGFR2, 1 µM, read-out: residual activity",96.7%
same,remaining activity at 0.2 µM,"340 wild-type kinases [4]; 0.2 µM 2015, read-out: NEK3 residual activity",98.3%
same,remaining activity at 1 µM,"340 wild-type kinases [4]; 1 µM 2015, read-out: NEK3 residual activity",88.8%
same,remaining activity at 0.2 µM,"340 wild-type kinases [4]; NEK3, 0.2 µM, read-out: residual activity",98.3%
same,remaining activity at 1 µM,"340 wild-type kinases [4]; NEK3, 1 µM, read-out: residual activity",88.8%
same,remaining activity at 0.2 µM,"340 wild-type kinases [5]; 0.2 µM 2015, read-out: NDR1 residual activity",91.9%
same,remaining activity at 1 µM,"340 wild-type kinases [5]; 1 µM 2015, read-out: NDR1 residual activity",94%
same,remaining activity at 0.2 µM,"340 wild-type kinases [5]; NDR1, 0.2 µM, read-out: residual activity",91.9%
same,remaining activity at 1 µM,"340 wild-type kinases [5]; NDR1, 1 µM, read-out: residual activity",94%
same,remaining activity at 0.2 µM,"340 wild-type kinases [6]; 0.2 µM 2015, read-out: LRRK2 residual activity",98.2%
same,remaining activity at 1 µM,"340 wild-type kinases [6]; 1 µM 2015, read-out: LRRK2 residual activity",93.8%
same,remaining activity at 0.2 µM,"340 wild-type kinases [6]; LRRK2, 0.2 µM, read-out: residual activity",98.2%
same,remaining activity at 1 µM,"340 wild-type kinases [6]; LRRK2, 1 µM, read-out: residual activity",93.8%
same,remaining activity at 0.2 µM,"340 wild-type kinases [7]; 0.2 µM 2015, read-out: VRK2 residual activity",115%
same,remaining activity at 1 µM,"340 wild-type kinases [7]; 1 µM 2015, read-out: VRK2 residual activity",118%
same,remaining activity at 0.2 µM,"340 wild-type kinases [7]; VRK2, 0.2 µM, read-out: residual activity",115%
same,remaining activity at 1 µM,"340 wild-type kinases [7]; VRK2, 1 µM, read-out: residual activity",118%
same,remaining activity at 0.2 µM,"340 wild-type kinases [8]; 0.2 µM 2015, read-out: ULK2 residual activity",105%
same,remaining activity at 1 µM,"340 wild-type kinases [8]; 1 µM 2015, read-out: ULK2 residual activity",87.8%
same,remaining activity at 0.2 µM,"340 wild-type kinases [8]; ULK2, 0.2 µM, read-out: residual activity",105%
same,remaining activity at 1 µM,"340 wild-type kinases [8]; ULK2, 1 µM, read-out: residual activity",87.8%
same,remaining activity at 0.2 µM,"340 wild-type kinases [9]; 0.2 µM 2015, read-out: WNK3 residual activity",121%
same,remaining activity at 1 µM,"340 wild-type kinases [9]; 1 µM 2015, read-out: WNK3 residual activity",113%
same,remaining activity at 0.2 µM,"340 wild-type kinases [9]; WNK3, 0.2 µM, read-out: residual activity",121%
same,remaining activity at 1 µM,"340 wild-type kinases [9]; WNK3, 1 µM, read-out: residual activity",113%
same,remaining activity at 0.2 µM,"340 wild-type kinases [10]; 0.2 µM 2015, read-out: CK1gamma1 residual activity",115%
same,remaining activity at 1 µM,"340 wild-type kinases [10]; 1 µM 2015, read-out: CK1gamma1 residual activity",107%
same,remaining activity at 0.2 µM,"340 wild-type kinases [10]; CK1gamma1, 0.2 µM, read-out: residual activity",115%
same,remaining activity at 1 µM,"340 wild-type kinases [10]; CK1gamma1, 1 µM, read-out: residual activity",107%
same,remaining activity at 0.2 µM,"340 wild-type kinases [11]; 0.2 µM 2015, read-out: STK39 residual activity",109%
same,remaining activity at 1 µM,"340 wild-type kinases [11]; 1 µM 2015, read-out: STK39 residual activity",108%
same,remaining activity at 0.2 µM,"340 wild-type kinases [11]; STK39, 0.2 µM, read-out: residual activity",109%
same,remaining activity at 1 µM,"340 wild-type kinases [11]; STK39, 1 µM, read-out: residual activity",108%

# From article PMC11864979, “First-in-class ultralong-target-residence-time p38α inhibitors as a mitosis-targeted therapy for colorectal cancer” (Nature Cancer, 2025)
